Test results from ChEMBL document CHEMBL4342436, “Artemisia: a promising plant for the treatment of cancer” (Bioorg Med Chem, 2020).
Values after ≈ are worked out from the molar mass of the structure shown. Values belong to the molecule of their own block, whether it stands above or below them.

Key:
COLO 205 [1] = experiment: Antiproliferative activity against human COLO205 cells assessed as reduction in cell viability after 48 hrs by MTT assay; format: functional, cell-based; conditions: COLO 205, 48 h
B16-F10 = experiment: Cytotoxicity against mouse B16F10 cells assessed as reduction in cell viability incubated for 24 hrs by MTT assay; format: functional, cell-based; conditions: B16-F10, 24 h
MIA PaCa-2 [2] = experiment: Antiproliferative activity against human MIAPaCa2 cells assessed as reduction in cell viability after 48 hrs by MTT assay; format: functional, cell-based; conditions: MIA PaCa-2, 48 h
MCF7 [3] = experiment: Antiproliferative activity against human MCF7 cells assessed as reduction in cell viability after 48 hrs by MTT assay; format: functional, cell-based; conditions: MCF7, 48 h
A549 [4] = experiment: Antiproliferative activity against human A549 cells assessed as reduction in cell viability after 48 hrs by MTT assay; format: functional, cell-based; conditions: A549, 48 h
A-431 = experiment: Cytotoxicity against human A431 cells assessed as reduction in cell viability incubated for 24 hrs by MTT assay; format: functional, cell-based; conditions: A-431, 24 h
BHY = experiment: Antiproliferative activity against human BHY cells assessed as reduction in cell viability after 48 hrs by MTT assay; format: functional, cell-based
SK-N-AS = experiment: Induction of apoptosis in human SK-N-AS cells assessed as apoptotic cells at 300 uM after 72 hrs by Annexin V-FITC/propidium iodide staining based flow cytometric analysis relative to control; format: functional
SK-N-DZ = experiment: Induction of apoptosis in human SK-N-DZ cells assessed as apoptotic cells at 300 uM after 72 hrs by Annexin V-FITC/propidium iodide staining based flow cytometric analysis relative to control; format: functional
[5] = Cytotoxicity against rat pancreatic tumour cells assessed as reduction in cell viability after 24 hrs by MTT assay; format: functional, cell-based
P388 = experiment: Cytotoxicity against mouse P388 cells; format: functional; conditions: read-out: ED50 (the source's name)
HT-29 [6] = experiment: Cytotoxicity against human HT-29 cells; format: functional; conditions: read-out: ED50 (the source's name)
BE(2)-C = experiment: Induction of apoptosis in human BE(2)-C cells assessed as apoptotic cells at 300 uM after 72 hrs by Annexin V-FITC/propidium iodide staining based flow cytometric analysis relative to control; format: functional
KB = experiment: Cytotoxicity against human KB cells; format: functional; conditions: read-out: ED50 (the source's name)
MCF7 [7] = experiment: Cytotoxicity against human MCF7 cells; format: functional; conditions: read-out: ED50 (the source's name)
[8] = Growth inhibition of human A375P cells at 150 uM after 72 hrs by MTT assay relative to control; format: functional; conditions: read-out: GI
Lymphocyte = experiment: Induction of apoptosis in human Lymphocyte cells assessed as apoptotic cells at 2 ug/ml after 24 hrs by Annexin V-FITC/propidium iodide staining based fluorescence microscopic method relative to control; format: cell-based
[9] = Induction of apoptosis in human SH-EP1 cells assessed as apoptotic cells at 300 uM after 72 hrs by Annexin V-FITC/propidium iodide staining based flow cytometric analysis relative to control; format: functional
[10] = Growth inhibition of human A375M cells at 150 uM after 72 hrs by MTT assay relative to control; format: functional; conditions: read-out: GI
MCF-10A = experiment: Induction of apoptosis n human MCF10A transformed with RAS gene at 100 uM by flow cytometric analysis relative to control; format: functional
THP-1 = experiment: Cytotoxicity against human THP1 cells after 48 hrs by trypan blue dye exclusion counting method; format: functional, cell-based; conditions: THP-1, 48 h
HCT-116 = experiment: Cytotoxicity against human p53 positive HCT116 cells assessed as reduction in cell viability after 48 hrs by MTT assay; format: functional; conditions: HCT-116, 48 h, read-out: LD50 (the source's name)
MCF7 [11] = experiment: Cytotoxicity against human MCF7 cells after 24 hrs by MTT assay; format: functional, cell-based; conditions: MCF7, 24 h
NCI-H460 = experiment: Cytotoxicity against human NCI-H460 cells after 24 hrs by MTT assay; format: functional, cell-based; conditions: NCI-H460, 24 h
HepG2 = experiment: Cytotoxicity against human HepG2 cells after 24 hrs by MTT assay; format: functional, cell-based; conditions: HepG2, 24 h
MDA-MB-435 = experiment: Cytotoxicity against human MDA-MB-435 cells after 72 hrs by MTT assay; format: functional, cell-based; conditions: MDA-MB-435, 72 h
COLO 205 [12] = experiment: Cytotoxicity against human COLO205 cells after 72 hrs by MTT assay; format: functional, cell-based; conditions: COLO 205, 72 h
[13] = Cytotoxicity against human HO8910 cells assessed as reduction in cell viability after 24 hrs by MTT assay; format: functional, cell-based; conditions: HO-8910, 24 h
HeLa = experiment: Cytotoxicity against human HeLa cells assessed as reduction in cell viability after 24 hrs by MTT assay; format: functional, cell-based
[14] = Cytotoxicity against human QGY cells assessed as reduction in cell viability after 24 hrs by MTT assay; format: functional, cell-based
[15] = Cytotoxicity against human 95-D cells assessed as reduction in cell viability after 24 hrs by MTT assay; format: functional, cell-based
MCF7 [16] = experiment: Cytotoxicity against human MCF7 cells at 50 nM in presence of doxorubicin relative to control; format: functional
[17] = Cytotoxicity against human PG100 cells assessed as cell viability at 955.2 ug/mL after 24 hrs by MTT assay relative to control; format: functional; conditions: read-out: Activity
HEp-2 = experiment: Cytotoxicity against human Hep2 cells after 24 hrs by MTT assay; format: functional, cell-based; conditions: HEp-2, 24 h
A549 [18] = experiment: Cytotoxicity against human A549 cells after 24 hrs by MTT assay; format: functional, cell-based; conditions: A549, 24 h
HL-60 = experiment: Antiproliferative activity against human HL60 cells assessed as reduction in cell viability after 3 days by XTT assay; format: functional, cell-based; conditions: HL-60, 72 h
HT-29 [19] = experiment: Cytotoxicity against human HT-29 cells after 24 hrs by MTT assay; format: functional, cell-based; conditions: HT-29, 24 h
MIA PaCa-2 [20] = experiment: Cytotoxicity against human MIAPaCa2 cells after 24 hrs by MTT assay; format: functional, cell-based; conditions: MIA PaCa-2, 24 h

- IC50 (COLO 205 [1]): 25.2 to 88.1 µM
- IC50 (MIA PaCa-2 [2]): 25.2 to 88.1 µM
- IC50 (MCF7 [3]): 25.2 to 88.1 µM
- IC50 (A549 [4]): 25.2 to 88.1 µM
SMILES: C=C1C(=O)O[C@H]2[C@H]1CCC(C)=C1C[C@H]3O[C@@]3(C)[C@@H]12 [LUDARTIN]
- IC50 (B16-F10): 6.6 µM
- IC50 (A-431): 19 µM
- IC50 (BHY): 25.2 to 88.1 µM

SMILES: C[C@@H]1CC[C@H]2[C@@H](C)C(=O)O[C@@H]3O[C@@]4(C)CC[C@@H]1[C@]32OO4 [ARTEMISININ]
- Activity (SK-N-AS): 22%
- Activity (SK-N-DZ): 40%
- IC50 [5]: 45 µM
- EC50 (P388): 1.25 to 9.62 µg/mL (≈ 4.43 to 34.1 µM)
- EC50 (HT-29 [6]): 1.25 to 9.62 µg/mL (≈ 4.43 to 34.1 µM)
- Activity (BE(2)-C): 42%
- EC50 (KB): 1.25 to 9.62 µg/mL (≈ 4.43 to 34.1 µM)
- EC50 (MCF7 [7]): 1.25 to 9.62 µg/mL (≈ 4.43 to 34.1 µM)
- inhibition of growth at 150 µM [8]: 68%
- Activity (Lymphocyte): 70%
- Activity [9]: 23%
- inhibition of growth at 150 µM [10]: 60%

SMILES: COc1cc(-c2cc(=O)c3c(O)c(OC)c(O)cc3o2)ccc1O [JACEOSIDINE]
- Activity (MCF-10A): 48.72%
- IC50 (THP-1): 70.5 µM

SMILES: CCCCCCCCCCCCCCCCCCCCCCOC(=O)/C=C/c1ccc(O)cc1
- CC50 (HCT-116): 33.8 µM

SMILES: CC1=CC(=O)C2=C(C)C[C@@H](O[C@@H]3O[C@H](CO)[C@@H](O)[C@H](O)[C@H]3O)[C@@H]3[C@@H](OC(=O)[C@H]3C)[C@@H]12
- IC50 (MCF7 [11]): 26.8 to 48.7 µM
- IC50 (NCI-H460): 26.8 to 48.7 µM
- IC50 (HepG2): 26.8 to 48.7 µM

SMILES: C=C1C(=O)O[C@H]2[C@H]1[C@@H](OC(=O)C(C)CC)CC(=C)[C@]1(O)CC=C(C)[C@H]21 (stereo partly specified)
- IC50 (MDA-MB-435): 7 to 10 µM
- IC50 (COLO 205 [12]): 7 to 10 µM

SMILES: C=CC(=C)CC/C=C(/CCC=C(C)C)COC(C)=O
- IC50 [13]: 17.9 to 73.3 µM
- IC50 (HeLa): 17.9 to 73.3 µM
- IC50 [14]: 17.9 to 73.3 µM
- IC50 [15]: 17.9 to 73.3 µM

SMILES: CO[C@H]1O[C@@H]2O[C@@]3(C)CC[C@H]4[C@H](C)CC[C@@H]([C@H]1C)[C@@]24OO3
- Activity (MCF7 [16]): 50%
- viability at 955.2 µg/mL [17]: 5.55%

- IC50 (HL-60): 1.1 to 40.7 µg/mL (≈ 6.54 to 242 µM)
SMILES: CC#CC#CC(=O)c1ccccc1
- IC50 (HEp-2): 0.6 to 6.1 µM
- IC50 (A549 [18]): 0.6 to 6.1 µM
- IC50 (HT-29 [19]): 0.6 to 6.1 µM
- IC50 (MIA PaCa-2 [20]): 0.6 to 6.1 µM

SMILES: CC1=C[C@@H]2[C@@H]([C@@H](C)C(=O)O)CC[C@@](C)(O)[C@@H]2C[C@H]1O
- IC50 (MCF7 [11]): 26.8 to 48.7 µM
- IC50 (NCI-H460): 26.8 to 48.7 µM
- IC50 (HepG2): 26.8 to 48.7 µM
